“Also recorded” adds a separate entry of the source. Like-named read-outs stand apart in the source and are kept apart here.

The text below walks through data of patent US12403150B2, “Tryptamine compositions for enhancing neurite outgrowth” (priority 2019, dated 2025).

The subject of assay [1] is inflammation in the lungs. Conditions: in vivo; cited from earlier work.
For the next assay, the target named is 5-HT2A receptor (Homo sapiens, UniProt P28223). Particulars: cited from earlier work.
In the next assay the test system is hallucinogenic effects. Conditions: cited from earlier work.
Assay [2] has as its system Rat Induced Pluripotent Stem Cell (iPSC) Neuron Culture / cortical neurons from rat embryo. Format: cell-based. Conditions: for Neurite length per neuron, % of control, Avg. / Neurite length per neuron, Length (μm), Avg. / Neurites per neuron, % of control, Avg. / Neurites per neuron, Number, Avg.: day 10. As for the experimental part: Experiments were conducted to evaluate the neurotrophic effects of several purified tryptamines, H. erinaceum extracts, and the tryptamines combined with selected extracts of H. erinaceum. The tryptamines, baeocystin, norbaeocystin, and norpsilocin, were evaluated at final concentrations of 0.3 μg/mL, 1 μg/mL, 3 μg/mL, and 10 μg/mL. The experiments analyzed the H. erinaceum growth medium (rice or rice and oat hull fiber), the days of cultivation, the extract solvent (water, ethanol, or ethyl acetate), and the final concentration of the extract (31.3 μg/mL, 62.5 μg/mL, 125 μg/mL or 250 μg/mL). Finally, combinations of the three tryptamines and representative H. erinaceum extracts were combined and evaluated.
Rat Induced Pluripotent Stem Cell (iPSC) Neuron Culture
The following protocol was performed for each independent culture. Six culture experiments were performed for each condition.
Results are expressed as mean (±Standard Deviation).

For assay [3], the system named is PC12 cells treated with conditioned media from 1321N1 cells. The assay is described as follows: Neurite outgrowth of PC12 cells treated with conditioned media from 1321N1 cells. Conditions: conditioned media from treated 1321N1 human astrocytoma cells; n=3. It counts as cell-based, rat. From the text:
1321N1 human brain astrocytoma cells are known to excrete neurologically beneficial compounds when stimulated with neurotrophic compounds and fungal extracts including lion's mane (Mori et al., Biological and Pharmaceutical Bulletin, 9:1727-1732 (2008)). While some fungi have well established mechanisms by which they benefit neurological health, little is known about the role of psilocybin analogs specifically. Generally following the protocol of Mori et al., 2008, 1321N1 human astrocytoma cells were treated with psilocybin analogs, and conditioned media was collected and applied to differentiated rat pheochromocytoma PC12 cells to determine the resulting impact on neurite outgrowth.

Assay [4] deals with nerve growth factor (NGF) protein. The assay is described as follows: ELISA of NGF protein in human 1321N1 brain cells. Format: cell-based. Particulars: human 1321N1 cells, compared to a vehicle control; n=3; p<0.05. The source says:
Accordingly, preliminary research has started to reveal the mechanisms by which psilocybin analogs may confer neurotrophic benefits that facilitate neurite outgrowth.
(§1) See Ly et al., “Psychedelics Promote Structural and Functional Neural Plasticity,” Cell Rep.
On the technique in general: In an ELISA, binding on a coated surface is turned into a signal by an enzyme label.

The subject of another assay is IL-10. Kind of assay: ELISA of IL-10 in human 1321N1 brain cells. It counts as cell-based.
Text: as §1

Sequence of 5-HT2A receptor (P28223 whole entry): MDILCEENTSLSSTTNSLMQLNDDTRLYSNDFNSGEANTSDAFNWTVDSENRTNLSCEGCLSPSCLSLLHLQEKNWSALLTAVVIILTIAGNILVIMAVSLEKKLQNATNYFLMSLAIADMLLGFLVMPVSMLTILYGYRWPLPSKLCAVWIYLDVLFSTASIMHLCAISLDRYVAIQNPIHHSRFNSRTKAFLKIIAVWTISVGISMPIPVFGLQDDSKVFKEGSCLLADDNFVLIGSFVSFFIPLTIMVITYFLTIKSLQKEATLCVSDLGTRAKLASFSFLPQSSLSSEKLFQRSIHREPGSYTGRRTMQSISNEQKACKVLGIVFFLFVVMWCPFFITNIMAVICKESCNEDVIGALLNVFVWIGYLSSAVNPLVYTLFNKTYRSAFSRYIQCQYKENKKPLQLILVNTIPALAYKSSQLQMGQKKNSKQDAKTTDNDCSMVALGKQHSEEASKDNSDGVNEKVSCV

Take `COc1cc(C[C@@H](C)N)c(OC)cc1I` [(R)-2,5-dimethoxy-4-iodoamphetamine]: the “inflammation in the lungs” value in assay [1] is “prevent and reverse inflammation in the lungs”. For the same molecule, the “activation of the 5-HT2A receptor” value on 5-HT2A receptor is listed as “activate the 5-HT2A receptor”.

For the molecule `CNCCc1c[nH]c2cccc(OP(=O)(O)O)c12` [baeocystin, 4-phosphoryloxy-N-methyltryptamine], in the assay on hallucinogenic effects (4 mg, anecdotal experience), the “hallucinogenic effects after consumption” value is given as “gentle hallucinogenic experience”. The “hallucinogenic effects after oral consumption” value with hallucinogenic effects (10 mg and 20 mg, case studies) is given as “did not produce any hallucinogenic effects”. In assay [2] (tryptamine 0.3 μg/mL), the “Neurite length per neuron, % of control, Avg.” value (“Neurite length per neuron, %” below) is on record as 119.24 % of control; the “Neurite length per neuron, Length (μm), Avg.” value is recorded as 418.30 μm; the “Neurites per neuron, % of control, Avg.” value is recorded as 94.46 % of control; the “Neurites per neuron, Number, Avg.” value turned out to be 2.99. In assay [2] (tryptamine 1 μg/mL), the “Neurite length per neuron, %” value is reported as 112.34 % of control; the “Neurite length per neuron, Length (μm), Avg.” value is recorded as 394.11 μm; the “Neurites per neuron, % of control, Avg.” value is given as 93.66 % of control; the “Neurites per neuron, Number, Avg.” value is on record as 2.96. Also, in assay [2] (tryptamine 3 μg/mL), the “Neurite length per neuron, %” value is 118.42 % of control; the “Neurite length per neuron, Length (μm), Avg.” value is 415.42 μm; the “Neurites per neuron, % of control, Avg.” value is 97.18 % of control; the “Neurites per neuron, Number, Avg.” value is listed as 3.07. Besides, in assay [2] (tryptamine 10 μg/mL), the “Neurite length per neuron, %” value is on record as 109.61 % of control; the “Neurite length per neuron, Length (μm), Avg.” value worked out at 384.52 μm; the “Neurites per neuron, % of control, Avg.” value is 96.87 % of control; the “Neurites per neuron, Number, Avg.” value is 3.06. Also, in assay [3], the “neurite outgrowth in PC12 cells by conditioned media” value (“neurite outgrowth in PC12 cells” below) is on record as “induce neurite outgrowth”.

On to `NCCc1c[nH]c2cccc(OP(=O)(O)O)c12` [norbaeocystin, 4-phosphoryloxy-tryptamine], for which, in assay [2] (tryptamine 0.3 μg/mL), the “Neurite length per neuron, %” value was 128.69 % of control; the “Neurite length per neuron, Length (μm), Avg.” value was 441.86 μm; the “Neurites per neuron, % of control, Avg.” value is listed as 92.67 % of control; the “Neurites per neuron, Number, Avg.” value is on record as 3.09. Moreover, in assay [2] (tryptamine 1 μg/mL), the “Neurite length per neuron, %” value is on record as 127.25 % of control; the “Neurite length per neuron, Length (μm), Avg.” value turned out to be 436.93 μm; the “Neurites per neuron, % of control, Avg.” value is recorded as 91.64 % of control; the “Neurites per neuron, Number, Avg.” value is 3.06. In addition, in assay [2] (tryptamine 3 μg/mL), the “Neurite length per neuron, %” value was 112.13 % of control; the “Neurite length per neuron, Length (μm), Avg.” value turned out to be 385.00 μm; the “Neurites per neuron, % of control, Avg.” value is reported as 87.02 % of control; the “Neurites per neuron, Number, Avg.” value is listed as 2.90. Further, in assay [2] (tryptamine 10 μg/mL), the “Neurite length per neuron, %” value is on record as 112.67 % of control; the “Neurite length per neuron, Length (μm), Avg.” value is reported as 386.86 μm; the “Neurites per neuron, % of control, Avg.” value was 92.01 % of control; the “Neurites per neuron, Number, Avg.” value is listed as 3.07. Further, in assay [4], the “expression of NGF protein” value is “increased expression of NGF protein; also recorded: induces the expression”. For the same molecule, the “neurite outgrowth in PC12 cells” value in assay [3] is listed as “induce neurite outgrowth”.

Take `CNCCc1c[nH]c2cccc(O)c12` [norpsilocin, 4-hydroxy-N-methyl-tryptamine]: in assay [2] (at the concentrations tested), the “neurite outgrowth compared with vehicle control and other treatments, in words” value was “did not perform better than vehicle control”. For the same molecule, in assay [2] (tryptamine 0.3 μg/mL), the “Neurite length per neuron, %” value is given as 107.70 % of control; the “Neurite length per neuron, Length (μm), Avg.” value is recorded as 344.09 μm; the “Neurites per neuron, % of control, Avg.” value is listed as 83.77 % of control; the “Neurites per neuron, Number, Avg.” value was found to be 2.80. Also, in assay [2] (tryptamine 1 μg/mL), the “Neurite length per neuron, %” value is recorded as 101.13 % of control; the “Neurite length per neuron, Length (μm), Avg.” value is on record as 347.25 μm; the “Neurites per neuron, % of control, Avg.” value was 87.18 % of control; the “Neurites per neuron, Number, Avg.” value came to 2.91. Further, in assay [2] (tryptamine 3 μg/mL), the “Neurite length per neuron, %” value is 73.80 % of control; the “Neurite length per neuron, Length (μm), Avg.” value amounted to 253.40 μm; the “Neurites per neuron, % of control, Avg.” value is 79.36 % of control; the “Neurites per neuron, Number, Avg.” value was 2.65. In addition, in assay [2] (tryptamine 10 μg/mL), the “Neurite length per neuron, %” value is recorded as 7.65 % of control; the “Neurite length per neuron, Length (μm), Avg.” value is reported as 26.28 μm; the “Neurites per neuron, % of control, Avg.” value is reported as 27.71 % of control; the “Neurites per neuron, Number, Avg.” value amounted to 0.92. Besides, in assay [3], the “neurite outgrowth in PC12 cells” value is “induce neurite outgrowth”. The “expression of the anti-inflammatory cytokine IL-10” value with IL-10 is recorded as “induces the expression”.

B1: BDNF: brain-derived neurotrophic factor, positive control at 50 ng/ml (protein, UniProt P23560 19-247, looked up)
Neurotrophic factor BDNF …: APMKEANIRGQGGLAYPGVRTHGTLESVNGPKAGSRGLTSLADTFEHVIEELLDEDQKVRPNEENNKDADLYTSRVMLSSQVPLEPPLLFLLEEYKNYLDAANMSMRVRRHSDPARRGELSVCDSISEWVTAADKKTAVDMSGGTVTVLEKVPVSKGQLKQYFYETKCNPMGYTKEGCRGIDKRHWNSQCRTTQSYVRALTMDSKKRIGWRFIRIDTSCVCTLTIKRGR
As for B1, the “Neurites per neuron, Number, Avg.” value in assay [2] (50 ng/ml, positive control, one value per culture plate) turned out to be 3.82.
